PubChem BioAssay (NCI)
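Following 48 hours of exposure in 96-well plates, responses at five concentrations were used to interpolate endpoints linearly. TGI: total growth inhibition.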

Assays:
Experiment in all cases: DTP human tumour cell line panel, 48 h
HOP-92 NSCLC = tested on: HOP-92 NSCLC
COLO 205 colon = tested on: COLO 205 colon
MCF7 breast = tested on: MCF7 breast
786-0 renal = tested on: 786-0 renal
OVCAR-5 ovarian = tested on: OVCAR-5 ovarian
U251 CNS = tested on: U251 CNS
SF-539 CNS = tested on: SF-539 CNS
NCI-H460 lung = tested on: NCI-H460 lung
DU-145 prostate = tested on: DU-145 prostate
SK-MEL-5 melanoma = tested on: SK-MEL-5 melanoma

| Structure (SMILES) | TGI (HOP-92 NSCLC) [µM] | TGI (COLO 205 colon) [µM] | TGI (MCF7 breast) [µM] | TGI (786-0 renal) [µM] | TGI (OVCAR-5 ovarian) [µM] | TGI (U251 CNS) [µM] | TGI (SF-539 CNS) [µM] | TGI (NCI-H460 lung) [µM] | TGI (DU-145 prostate) [µM] | TGI (SK-MEL-5 melanoma) [µM] |
| --- | --- | --- | --- | --- | --- | --- | --- | --- | --- | --- |
| CCN(CC(=O)O)CC(=O)O | > 100 | > 100 | > 100 | > 100 | > 100 | > 100 | > 100 | > 100 | > 100 | > 100 |
| CNc1ccc2c(c1)Cc1ccccc1-2 | 64.1 | > 100 | > 100 | > 100 | > 100 | > 100 | > 100 | > 100 | > 100 | 74.7 |
| COc1cc(-c2c3c(cc4c2OCO4)[C@@H](Nc2ccc4c(c2)Cc2cc(N[C@@H]5c6cc7c(cc6C(c6cc(OC)c(O)c(OC)c6)[C@H]6C(=O)OC[C@H]56)OCO7)ccc2-4)[C@H]2COC(=O)[C@@H]2C3)cc(OC)c1O (stereo not given in full) | 97.3 | 28.7 | > 100 | 63.7 | 88.3 | 89 | 19 | > 100 | > 100 | 46.2 |
| CCOC1NC(=O)c2ccccc21 (stereo not given) | > 100 | > 100 | > 100 | > 100 | > 100 | > 100 | > 100 | > 100 | > 100 | > 100 |
| CN(C)c1nc(=NCc2ccccn2)ss1 | > 10 | > 10 | > 10 | > 5.57 | > 10 | > 10 | > 10 | > 10 | > 10 | > 10 |
| CC1=NC(C)(C)N(O)C1(C)C | > 100 | > 100 | > 100 | > 100 | > 100 | > 100 | > 100 | > 100 | > 100 | > 100 |
| COc1ccc(N2C(=O)C3c4[nH]c5ccccc5c4C4C(C)CCCC4C3C2=O)cc1 (stereo not given) | > 100 | > 100 | > 100 | > 63.5 | > 100 | > 100 | > 82.8 | > 100 | > 100 | > 100 |
| COc1cc(/C=C/C(=O)O)ccc1OS(=O)(=O)O | > 100 | > 100 | > 100 | > 100 | > 100 | > 100 | > 100 | > 100 | > 100 | > 100 |
| O=S1(=O)c2ccccc2NC(=S)N1c1ccccc1 | 45.3 | > 100 | > 100 | > 100 | > 100 | > 100 | > 100 | > 100 | > 100 | > 100 |
| CN1c2ccccc2C(=O)NC12CCN(CC1COc3ccccc3O1)CC2 (stereo not given) | 71.3 | > 100 | > 100 | > 100 | > 100 | > 100 | > 100 | > 100 | > 100 | 41.5 |
| N/C(CSCCSC/C(N)=N/O)=N\O | > 100 | > 100 | > 100 | > 100 | > 100 | > 100 | > 100 | > 100 | > 100 | > 100 |
| COc1cc2nc(-c3c(F)cccc3F)n(Cc3c(F)cccc3F)c2cc1Cc1c(F)cccc1F | > 30.8 | > 100 | > 63.9 | > 100 | > 100 | > 100 | > 100 | > 100 | > 100 | > 100 |
| COc1ccc(/C=N/Nc2nc3ccccc3c(=O)n2-c2ccccc2)c(OCc2ccccc2)c1 | > 100 | > 100 | > 100 | > 100 | > 100 | > 100 | > 100 | > 100 | > 100 | > 100 |
| CCN(C(=O)N[C@H](C(=O)N[C@@H](C)C(=O)OC)C(C)C)c1ccccc1 | 78.6 | 43.4 | > 100 | 92.4 | > 100 | 86.6 | 48.4 | 66.2 | > 100 | > 100 |
| OCC1OC(O[C@H]2CN3[C@H](O)[C@@H](O)[C@H](O)[C@H]3C2O)C(O)C(O)C1O (stereo not given in full) | > 100 | > 100 | > 100 | > 100 | > 100 | > 100 | > 100 | > 100 | > 100 | > 100 |
| c1ccc(-c2ccc(N=NN3CCCC3)cc2)cc1 | > 100 | > 100 | > 100 | > 100 | > 100 | > 100 | > 100 | > 100 | > 100 | > 100 |
| CC[P+](C#Cc1ccccc1)(c1ccccc1)c1ccccc1 | 5.9 | 2.59 | 10.8 | 4.36 | 16.3 | 4.48 | 4.01 | 11.2 | 10.4 | 2.84 |
| COc1cc2c(cc1O)CC[n+]1cc3c(OC)c(OC)ccc3cc1-2 | > 100 | > 100 | > 100 | > 100 | > 100 | > 100 | > 100 | > 100 | > 100 | > 100 |
| NC(=S)N=Nc1c(O)cc(Nc2ccc(Cl)cc2Cl)c2ccccc12 | 52.4 | > 100 | > 100 | 26.3 | > 100 | 38.2 | 53.4 | > 100 | > 100 | 95.8 |
| O=c1cc(-c2ccccc2F)[nH]c2cc3c(cc12)OCO3 | > 100 | 0.281 | > 50.9 | 28.8 | > 100 | 22.5 | 0.357 | > 32.3 | 0.48 | 4.41 |
| C/C(=N\Nc1nc2ccccc2s1)c1cccnn1 | 14.3 | > 100 | > 100 | > 100 | > 100 | > 100 | 17.7 | 15.1 | > 100 | > 100 |
| CC(C)(C)OC(=O)c1ccc(NCc2cc(O)ccc2O)cc1 | 3.4 | 5.48 | 18.4 | 5.38 | 21.9 | 9.32 | 2.73 | > 73.8 | 43.3 | 13.1 |
